Test results reported in patent US20200367818A1, “DEVICES, SYSTEMS, AND METHODS FOR TUMOR VISUALIZATION AND REMOVAL” (UNIVERSITY HEALTH NETWORK, priority 2018, published 2020).
Counter-ions that a name gives are not always drawn.

Tested on: invasive breast carcinoma lumpectomy/mastectomy specimens and lymph nodes
Experiment: 5-ALA breast study: PpIX fluorescence imaging of breast tumor specimens and lymph nodes with handheld device (405 nm excitation)
Assay type: in vivo, human
Details: multispectral or multiband fluorescence imaging with 5-ALA
Procedure: In one example, oral 5-ALA was dissolved in water and administered by a study nurse between 2-4 h before surgery in patients at dosages of 15 or 30 mg/kg 5-ALA.
By viewing lymph nodes prior to removal from the subject's body, it is possible to observe, using the device 100, red fluorescence emissions from cells containing induced porphyrins that are within the lymph node.
When combined with 5-ALA red FL, the differing emission spectra of normal tissue AF and PpIX are easily distinguishable visually (see FIGS. 15 and 16). […] The 405 nm excitation LEDs and the dual band emission filter (500-545 nm and 600-660 nm) are suitable for breast tumor imaging using 5-ALA because they provide a composite image comprised of red PpIX and green connective tissue FL, and broad green-to-red FL of adipose tissue (appears pink).

`NCC(=O)CCC(=O)O` [5-ALA, Aminolevulinic acid hydrochloride] was tested, and the “depth below the imaged tissue surface at which otherwise clinically occult disease is detected” value was ≤ 2.6 mm.
